According to US9078868B2, “Therapeutic agent for accelerating recovery of animal under medical treatment” (UNIVERSITY OF MIYAZAKI, priority 2010, dated 2015):
No end group written: not given here. *: point of attachment. Octanoyl = CCCCCCCC(=O)*

Test system: hospitalized animals (canines and felines) with poor physical conditions
Assay: Example 3-1: repeated dose of ghrelin (analyzed together with single dose animals), compiled by disease group
Assay type: in vivo
Set-up: key to Degree of anger or anxiety score after administration: 1 = calm/accustomed to staff … 5 = too violent to touch, bites
Conditions: for BUN: animals improved/animals evaluated / Body temperature: animals improved/animals evaluated / CPK: animals improved/animals evaluated / CRE: animals improved/animals evaluated / Degree of anger: animals improved/animals evaluated / GOT: animals improved/animals evaluated / GPT: animals improved/animals evaluated / PLT: animals improved/animals evaluated / Vigor: animals improved/animals evaluated / WBC: animals improved/animals evaluated / Respiratory rate: animals improved/animals evaluated / CRP: animals improved/animals evaluated: single or repeated dose; for Respiratory rate after administration: before administration 100/min; for GPT value after administration: before administration 1000 IU/L; for Activity (vigor) score after administration / Degree of anger or anxiety score after administration: example; for Activity (vigor) score after administration: scale 1-7; for Degree of anger or anxiety score after administration: before administration a score of 5, scale 1-5
Method: In these Examples, a canine-derived ghrelin (a peptide compound in which a side chain hydroxyl group of the serine residue at the 3rd position from the amino terminus is acylated with an n-octanoyl group in SEQ ID NO: 1) was used as ghrelin. The canine-derived ghrelin was chemically synthesized and then lyophilized, and a canine-derived ghrelin for administration containing 0.1, 0.3, 0.5, or 1 mg per vial of a canine-derived ghrelin was prepared.
To administer ghrelin to animals, the canine-derived ghrelin was dissolved to a concentration of 1 mg/2 mL in physiological saline and intravenously, subcutaneously, or intramuscularly injected after the dose was adjusted depending on the body weight.
The evaluation parameters used were activity (vigor), body temperature, hematology parameters (blood cell test values), serum biochemistry parameters (biochemical test values), the degree of anger or anxiety, and respiratory rate. […] The degree of anger or anxiety of an animal observed visually by an observer were also evaluated using the following criteria: 1. calm and accustomed to a health care professional, 2. able to be touched by but unaccustomed to a health care professional and restless, 3. wandering around or hiding in the kennel with anxiety, 4. able to be barely touched, and 5. too violent to be touched by a health care professional and tends to bite.
A canine-derived ghrelin was repeatedly administered intravenously or subcutaneously to each of the animals with poor physical conditions. The dose of intravenous administration was approximately 5 μg/kg or 10 μg/kg, and the dose of subcutaneous administration was approximately 100 μg/kg. The mean number of doses in repeated administration was approximately four times, and the maximum number of doses was 11 times. The administration period was one to six days.
Evaluation parameters evaluated before and after administration of ghrelin were appetite, quantity of meal, biochemical test values (GOT, GPT, BUN, CRE, CPK, CRP), blood cell test values (white blood cell [WBC], platelet [PLT]), body temperature, activity (vigor), skin, coat, wellness, the degree of anger or anxiety, respiratory rate, and others. These parameters were analyzed together with the results of the animals receiving a single dose (Examples 1 and 2). The analysis results were compiled by disease, such as renal dysfunction, tumor, fracture, and accident (see Table 3-1). Statistical analysis of values before and after administration was performed using a paired t-test.

[1] = fracture, accident, etc., 19 animals
[2] = fracture, accident, etc., *p < 0.05, **p < 0.01
[3] = gastrointestinal tract disease, 7 animals
[4] = genital disease, *p < 0.05, **p < 0.01
[5] = infection or parasitism, 15 animals
[6] = infection or parasitism, *p < 0.05, **p < 0.01
[7] = inflammatory disease, 13 animals
[8] = inflammatory disease, *p < 0.05, **p < 0.01
[9] = renal dysfunction, *p < 0.05, **p < 0.01

With “GSS (n-octanoyl) FLSPEHQKLQQRKESKKPPAKLQPR (GSS(Octanoyl)FLSPEHQKLQQRKESKKPPAKLQPR; listed as Canis familiaris) [ghrelin, chemically synthesized, lyophilized]” the “BUN: animals improved/animals evaluated” value [1] was 6/7, the “Body temperature: animals improved/animals evaluated” value [1] was 5/7 and the “CPK: animals improved/animals evaluated” value [1] was 2/2. For the same substance, the “CRE: animals improved/animals evaluated” value [1] was 2/3, the “Degree of anger: animals improved/animals evaluated” value [1] was 6/10 and the “GOT: animals improved/animals evaluated” value [1] was 6/6. For the same substance, the “GPT: animals improved/animals evaluated” value [1] was 6/7, the “PLT: animals improved/animals evaluated” value [1] was 4/8 and the “Vigor: animals improved/animals evaluated” value [1] was 13/16. The “WBC: animals improved/animals evaluated” value [1] was 3/7, the “Respiratory rate: animals improved/animals evaluated” value (fracture, accident, etc., 19 animals, #respiratory rate was stabilized in 2 of 2 animals) was 2/2 and the “BUN: change after vs before administration (t-test)” value (shortened to “BUN: change”) [2] was “Decreased*”. For the same substance, the “Body temperature: change after vs before administration (t-test)” value (“Body temperature: change” below) [2] was “Decreased*”, the “CPK: change after vs before administration (t-test)” value [2] was “Decreased*” and the “Degree of anger: change after vs before administration (t-test)” value [2] was “Improved*”. For the same substance, the “GOT: change after vs before administration (t-test)” value [2] was “Decreased*”, the “GPT: change after vs before administration (t-test)” value [2] was “Decreased*” and the “Vigor: change after vs before administration (t-test)” value (shortened to “Vigor: change”) [2] was “Improved**”. The “BUN value after administration” value (fractures, accidents, etc., before administration 18.3 mg/dL) was 10.6 mg/dL, the “Body temperature after administration” value (fractures, accidents, etc., before administration 39.2° C.) was 38.0 °C and the “CPK value after administration” value (fractures, accidents, etc., before administration 42.4 IU/L) was 9.4 IU/L. For the same substance, the “Respiratory rate after administration” value (fractures, accidents, etc.) was 50 min⁻¹, the “GOT value after administration” value (fractures, accidents, etc., before administration 996 IU/L) was 22 IU/L and the “GPT value after administration” value (fractures, accidents, etc.) was 32 IU/L. For the same substance, the “Activity (vigor) score after administration” value (shortened to “Activity (vigor) score”) (fractures, accidents, etc., before administration a score of 1) was 3, the “Degree of anger or anxiety score after administration” value (fractures, accidents, etc.) was 1 and the “BUN: animals improved/animals evaluated” value [3] was 1/1. For the same substance, the “Body temperature: animals improved/animals evaluated” value [3] was 2/3, the “CPK: animals improved/animals evaluated” value [3] was 2/2 and the “Degree of anger: animals improved/animals evaluated” value [3] was 0/1. The “GOT: animals improved/animals evaluated” value [3] was 3/3, the “GPT: animals improved/animals evaluated” value [3] was 3/3 and the “PLT: animals improved/animals evaluated” value [3] was 0/1. The “Vigor: animals improved/animals evaluated” value [3] was 5/5, the “WBC: animals improved/animals evaluated” value [3] was 2/2 and the “Vigor: change” value (gastrointestinal tract disease, *p < 0.05, **p < 0.01) was “Improved*”. For the same substance, the “Activity (vigor) score” value (gastrointestinal tract diseases, before administration a score of 1) was 5, the “BUN: animals improved/animals evaluated” value (genital disease, 29 animals) was 3/3 and the “Body temperature: animals improved/animals evaluated” value (genital disease, 29 animals) was 11/11. The “CRE: animals improved/animals evaluated” value (genital disease, 29 animals) was 1/2, the “CRP: animals improved/animals evaluated” value (genital disease, 29 animals) was 5/5 and the “Degree of anger: animals improved/animals evaluated” value (genital disease, 29 animals) was 2/8. For the same substance, the “GOT: animals improved/animals evaluated” value (genital disease, 29 animals) was 3/3, the “GPT: animals improved/animals evaluated” value (genital disease, 29 animals) was 4/4 and the “PLT: animals improved/animals evaluated” value (genital disease, 29 animals) was 4/7. For the same substance, the “Respiratory rate: animals improved/animals evaluated” value (genital disease, 29 animals) was 1/1, the “Vigor: animals improved/animals evaluated” value (genital disease, 29 animals) was 13/15 and the “WBC: animals improved/animals evaluated” value (genital disease, 29 animals) was 5/7. The “BUN: change” value [4] was “Decreased*”, the “Body temperature: change” value [4] was “Decreased**” and the “CRP: change after vs before administration (t-test)” value [4] was “Decreased*”. The “Vigor: change” value [4] was “Improved**”, the “BUN value after administration” value (genital diseases, before administration 31.5 mg/dL) was 7.1 mg/dL and the “CRP value after administration” value (genital diseases, before administration 100 mg/dL) was 16 mg/dL. The “Body temperature after administration” value (genital diseases, before administration 40.1° C.) was 38.1 °C, the “Activity (vigor) score” value (genital diseases, before administration a score of 1) was 3 and the “BUN: animals improved/animals evaluated” value [5] was 2/2. The “Body temperature: animals improved/animals evaluated” value [5] was 3/3, the “CPK: animals improved/animals evaluated” value [5] was 1/1 and the “CRE: animals improved/animals evaluated” value [5] was 1/1. For the same substance, the “Degree of anger: animals improved/animals evaluated” value [5] was 0/2, the “GOT: animals improved/animals evaluated” value [5] was 1/2 and the “GPT: animals improved/animals evaluated” value [5] was 3/4. The “PLT: animals improved/animals evaluated” value [5] was 3/4, the “Respiratory rate: animals improved/animals evaluated” value [5] was 3/3 and the “Vigor: animals improved/animals evaluated” value [5] was 10/11. For the same substance, the “WBC: animals improved/animals evaluated” value [5] was 1/4, the “BUN: change” value [6] was “Decreased*” and the “Respiratory rate: change after vs before administration (t-test)” value [6] was “Improved*”. For the same substance, the “Vigor: change” value [6] was “Improved**”, the “BUN value after administration” value (infections and parasitism, before administration 23.4 mg/dL) was 16.4 mg/dL and the “Respiratory rate after administration” value (infections and parasitism) was 70 min⁻¹. The “Activity (vigor) score” value (infections and parasitism, before administration a score of 1) was 3, the “BUN: animals improved/animals evaluated” value [7] was 4/4 and the “Body temperature: animals improved/animals evaluated” value [7] was 5/6. The “CPK: animals improved/animals evaluated” value [7] was 1/1, the “CRE: animals improved/animals evaluated” value [7] was 0/2 and the “CRP: animals improved/animals evaluated” value [7] was 1/2. For the same substance, the “Degree of anger: animals improved/animals evaluated” value [7] was 2/5, the “GOT: animals improved/animals evaluated” value [7] was 3/4 and the “GPT: animals improved/animals evaluated” value [7] was 4/4. For the same substance, the “PLT: animals improved/animals evaluated” value [7] was 2/4, the “Vigor: animals improved/animals evaluated” value [7] was 9/9 and the “WBC: animals improved/animals evaluated” value [7] was 3/4. The “Respiratory rate: animals improved/animals evaluated” value (inflammatory disease, 13 animals, #respiratory rate was stabilized in 2 of 2 animals) was 2/2#, the “BUN: change” value [8] was “Decreased*” and the “Body temperature: change” value [8] was “Decreased*”. The “GOT: change after vs before administration (t-test)” value [8] was “Decreased*”, the “GPT: change after vs before administration (t-test)” value [8] was “Decreased*” and the “Vigor: change” value [8] was “Improved*”. The “BUN value after administration” value (inflammatory diseases, before administration 18.6 mg/dL) was 10.7 mg/dL, the “Body temperature after administration” value (inflammatory diseases, before administration 39.8° C.) was 38.7 °C and the “GOT value after administration” value (inflammatory diseases, before administration 149 IU/L) was 25.0 IU/L. For the same substance, the “GPT value after administration” value (inflammatory diseases) was 282 IU/L, the “Activity (vigor) score” value (inflammatory diseases, before administration a score of 1) was 3 and the “BUN: animals improved/animals evaluated” value (renal dysfunction, 10 animals) was 2/3. For the same substance, the “Body temperature: animals improved/animals evaluated” value (renal dysfunction, 10 animals) was 2/2, the “CRE: animals improved/animals evaluated” value (renal dysfunction, 10 animals) was 3/3 and the “Degree of anger: animals improved/animals evaluated” value (renal dysfunction, 10 animals) was 1/3. For the same substance, the “GOT: animals improved/animals evaluated” value (renal dysfunction, 10 animals) was 0/1, the “GPT: animals improved/animals evaluated” value (renal dysfunction, 10 animals) was 1/1 and the “PLT: animals improved/animals evaluated” value (renal dysfunction, 10 animals) was 4/5. For the same substance, the “Respiratory rate: animals improved/animals evaluated” value (renal dysfunction, 10 animals) was 1/1, the “Vigor: animals improved/animals evaluated” value (renal dysfunction, 10 animals) was 5/6 and the “WBC: animals improved/animals evaluated” value (renal dysfunction, 10 animals) was 5/5. The “CRE: change after vs before administration (t-test)” value [9] was “Decreased*”, the “PLT: change after vs before administration (t-test)” value [9] was “Increased**” and the “Vigor: change” value [9] was “Improved**”. The “WBC: change after vs before administration (t-test)” value [9] was “Decreased*”, the “Serum creatinine (CRE) value after administration” value (renal dysfunctions, before administration 3.2 mg/dL) was 1.3 mg/dL and the “White blood cell (WBC) count after administration” value (renal dysfunctions, before administration 324×10^2/μL) was 13900 µL⁻¹. The “Activity (vigor) score” value (renal dysfunctions, before administration a score of 2) was 3, the “BUN: animals improved/animals evaluated” value (tumor, 14 animals) was 2/4 and the “Body temperature: animals improved/animals evaluated” value (tumor, 14 animals) was 6/6. For the same substance, the “CRE: animals improved/animals evaluated” value (tumor, 14 animals) was 2/4, the “CRP: animals improved/animals evaluated” value (tumor, 14 animals) was 2/2 and the “Degree of anger: animals improved/animals evaluated” value (tumor, 14 animals) was 4/6. For the same substance, the “GOT: animals improved/animals evaluated” value (tumor, 14 animals) was 3/5, the “GPT: animals improved/animals evaluated” value (tumor, 14 animals) was 4/6 and the “PLT: animals improved/animals evaluated” value (tumor, 14 animals) was 3/6. The “Respiratory rate: animals improved/animals evaluated” value (tumor, 14 animals) was 1/1, the “Vigor: animals improved/animals evaluated” value (tumor, 14 animals) was 7/8 and the “WBC: animals improved/animals evaluated” value (tumor, 14 animals) was 3/6. For the same substance, the “Body temperature: change” value (tumor, *p < 0.05, **p < 0.01) was “Decreased*”, the “Degree of anger: change after vs before administration (t-test)” value (tumor, *p < 0.05, **p < 0.01) was “Improved*” and the “Vigor: change” value (tumor, *p < 0.05, **p < 0.01) was “Improved*”. The “Body temperature after administration” value (tumors, before administration 39.8° C.) was 38.6 °C, the “Activity (vigor) score” value (tumors, before administration a score of 3) was 6 and the “Degree of anger or anxiety score after administration” value (tumors) was 2.
